Experimental data reported in patent US20080125400A1, “USE OF PHOSPHOENOLPYRUVATE DERIVATIVES” (priority 2006, published 2008).

System: troponin I
Assay: Randomized double-blind trial of PEPA in blood-based STH cardioplegia; blood troponin I by immunoassay (ADVIA Centaur)
Type: in vivo, human
Conditions: patients undergoing coronary artery bypass surgery; versus STH without PEPA
Experimental: A study was carried out to determine the effect of PEPA on heart tissue in patients with ischemic heart disease undergoing coronary artery bypass surgery. The study was a randomized, double-blind, parallel group, comparative trial that compared the effect during surgery (and shortly thereafter) of the presence or absence of a single dose of PEPA in blood-based STH.
The patients were assigned randomly to one of two groups. For the first group, PEPA was made up in a concentration of 495 μM/L as a single dose added to blood-based STH (“PEPA+STH”). Normal blood-based STH (without PEPA) was administered to the second group. There were 37 patients in each group.
PEPA was made up under sterile conditions in 40 ml of Ringer's solution and then filtered using a sterile 0.22 μm filter to sterilize the solution. Ten mL aliquots of the sterile PEPA solution were measured and added to each of three 1 L bags of Ringer's solution under sterile conditions providing a Ringer's solution containing 990 μM/L PEPA. […]
A sample of blood was collected from each patient at regular intervals during surgery (at the time of anaesthesia and at 6 and 12 hours after the start of surgery) and after surgery (at 24, 48 and 72 hours after the start of surgery). Each sample was analyzed by an immunoassay method using an ADVIA Centaur® system to determine the level of troponin I. […]

C=C(OP(=O)(O)O)C(N)=O [PEPA, 2-(dihydroxyphosphoryloxy)prop-2-enoic amide]
overall concentration of troponin I in the blood over the period studied: markedly reduces
